Source: ChEMBL document CHEMBL3588817, “Discovery of 4,5,6,7-Tetrahydrobenzo[1,2-d]thiazoles as Novel DNA Gyrase Inhibitors Targeting the ATP-Binding Site” (J Med Chem, 2015)
Values after ≈ are worked out from the molar mass of the structure shown.

What was measured:
[1] = tested on: Pseudomonas aeruginosa; experiment: Antibacterial activity against Pseudomonas aeruginosa ATCC 27853 assessed as inhibition of microbial growth by broth microdilution method; type: functional
[2] = tested on: Escherichia coli; experiment: Antibacterial activity against wild type Escherichia coli ATCC 25922 assessed as inhibition of microbial growth at 50 uM by broth microdilution method; type: functional; conditions: read-out: GI
[3] = tested on: Escherichia coli; experiment: Inhibition of Escherichia coli DNA topoisomerase 4 assessed as residual enzyme activity at 100 uM using relaxed pNO1 plasmid and biotinylated oligonucelotide incubated for 30 mins by fluorescence based DNA relaxation assay
[4] = tested on: Pseudomonas aeruginosa; experiment: Antibacterial activity against Pseudomonas aeruginosa ATCC 27853 assessed as inhibition of microbial growth at 50 uM by broth microdilution method; type: functional; conditions: read-out: GI
[5] = target: DNA gyrase (Escherichia coli, UniProt P0AES4+P0AES6); experiment: Inhibition of Escherichia coli DNA gyrase using relaxed pNO1 plasmid and biotinylated oligonucelotide incubated for 30 mins by fluorescence based DNA super-coiling assay; type: protein-complex assay
[6] = tested on: Escherichia coli; experiment: Antibacterial activity against wild type Escherichia coli ATCC 25922 assessed as inhibition of microbial growth by broth microdilution method; type: functional
[7] = tested on: Staphylococcus aureus; experiment: Antibacterial activity against Staphylococcus aureus 25923 assessed as inhibition of microbial growth by broth microdilution method; type: functional
[8] = tested on: Enterococcus faecalis; experiment: Antibacterial activity against Enterococcus faecalis ATCC 29212 assessed as inhibition of microbial growth by broth microdilution method; type: functional
[9] = tested on: Enterococcus faecalis; experiment: Antibacterial activity against Enterococcus faecalis ATCC 29212 assessed as inhibition of microbial growth at 50 uM by broth microdilution method; type: functional; conditions: read-out: GI
[10] = target: DNA gyrase (Staphylococcus aureus) (UniProt P0A0K8+P20831); experiment: Inhibition of Staphylococcus aureus DNA gyrase assessed as residual enzyme activity at 100 uM using relaxed pNO1 plasmid and biotinylated oligonucelotide incubated for 30 mins by fluorescence based DNA super-coiling assay; type: protein-complex assay
[11] = tested on: Staphylococcus aureus; experiment: Antibacterial activity against Staphylococcus aureus 25923 assessed as inhibition of microbial growth at 50 uM by broth microdilution method; type: functional; conditions: read-out: GI
[12] = target: Topoisomerase IV (Staphylococcus aureus) (UniProt P0C1U9+P0C1S7); experiment: Inhibition of Staphylococcus aureus DNA topoisomerase 4 assessed as residual enzyme activity at 100 uM using relaxed pNO1 plasmid and biotinylated oligonucelotide incubated for 30 mins by fluorescence based DNA relaxation assay; type: protein-complex assay
[13] = tested on: Escherichia coli; experiment: Antibacterial activity against wild type Escherichia coli ATCC 25922 by broth microdilution method; type: functional
[14] = tested on: Escherichia coli; experiment: Antibacterial activity against efflux deficient Escherichia coli tolC::Tn10 lacking functional tolC gene by broth microdilution method
[15] = tested on: Escherichia coli; experiment: Antibacterial activity against Escherichia coli imp4213::Tn10 by broth microdilution method; type: functional

Row | MIC [1] [µM] | Activity [3] [%] | IC50 [5] [µM] | MIC [6] [µM] | MIC [7] [µM] | MIC [8] [µM] | Activity [10] [%] | Activity [12] [%] | MIC [13] [µg/mL] | MIC [14] [µg/mL] | MIC [15] [µg/mL] | Structure (SMILES) | inhibition of growth at 50 µM [2] [%] | inhibition of growth at 50 µM [4] [%] | inhibition of growth at 50 µM [9] [%] | inhibition of growth at 50 µM [11] [%]
1 | > 125 | 97 | 29 | > 125 | > 125 | > 125 | 119 | 103 |  |  |  | Nc1ncc2c(n1)CCC(NC(=O)c1cc3ccccc3[nH]1)C2 (configuration not stated) | < 50 | < 50 | < 50 | < 50
2 |  |  | 170 |  |  |  |  |  |  |  |  | Nc1ncc2c(n1)CCC(CNC(=O)c1cc(Br)c(Br)[nH]1)C2 (configuration not stated) |  |  |  | 
3 | > 125 |  | 35 | > 125 | > 125 | > 125 |  |  | > 256 | > 256 | > 256 | COC(=O)CC(=O)Nc1nc2c(s1)C[C@@H](NC(=O)c1cc3ccccc3[nH]1)CC2 | < 50 | < 50 | < 50 | < 50
4 | > 125 | 97 | 1.7 | > 125 | > 125 | > 125 | 71 | 98 | > 256 | 128 (≈ 253 µM) | > 256 | NC(=O)CC(=O)Nc1nc2c(s1)C[C@@H](NC(=O)c1cc(Br)c(Br)[nH]1)CC2 | < 50 | < 50 | < 50 | < 50
5 | > 125 | 101 | 9.1 | > 125 | > 125 | > 125 | 64 | 85 | > 256 | 64 (≈ 123 µM) | 256 (≈ 492 µM) | COC(=O)CC(=O)Nc1nc2c(s1)C[C@H](NC(=O)c1cc(Br)c(Br)[nH]1)CC2 | < 50 | < 50 | < 50 | < 50
6 | > 125 | 100 | 0.89 | > 125 | > 125 | > 125 | 86 | 93 | > 256 | > 256 | > 256 | COC(=O)CCC(=O)Nc1nc2c(s1)C[C@@H](NC(=O)c1cc(Cl)c(Cl)[nH]1)CC2 | < 50 | < 50 | < 50 | < 50
7 | > 125 | 97 | 12 | > 125 | > 125 | > 125 | 85 | 98 | > 256 | 64 (≈ 193 µM) | 64 (≈ 193 µM) | Nc1nc2c(s1)C[C@@H](NC(=O)c1cc(Cl)c(Cl)[nH]1)CC2 | < 50 | < 50 | < 50 | < 50
8 |  | 103 | 21 |  |  |  | 87 | 100 |  |  |  | Nc1nc2c(s1)C[C@@H](NC(=O)c1cc3ccccc3[nH]1)CC2 |  |  |  | 
9 | > 125 | 47 | 7.7 | > 125 | > 125 | > 125 | 79 | 99 | > 256 | > 256 | 128 (≈ 333 µM) | O=C(O)C(=O)Nc1nc2c(s1)C[C@@H](NC(=O)c1cc3ccccc3[nH]1)CC2 | < 50 | < 50 | < 50 | < 50
10 | > 125 |  | 12 | > 125 | > 125 | > 125 |  |  | > 256 | > 256 | > 256 | O=C1CCN2C(=N1)SC1=C2CC[C@H](NC(=O)c2cc(Br)c(Br)[nH]2)C1 | < 50 | < 50 | < 50 | < 50
11 | > 125 | 102 | 2.9 | > 125 | > 125 | > 125 | 96 | 98 | > 256 | > 256 | > 256 | Nc1ncc2c(n1)CCC(NC(=O)c1cc(Br)c(Br)[nH]1)C2 (configuration not stated) | < 50 | < 50 | < 50 | < 50
12 | > 125 | 96 | 14 | > 125 | > 125 | > 125 | 110 | 97 |  |  |  | O=C(O)CC(=O)Nc1nc2c(s1)C[C@@H](NC(=O)c1cc(Br)c[nH]1)CC2 | < 50 | < 50 | < 50 | < 50
13 | > 125 | 96 | 0.5 | > 125 | > 125 | > 125 | 108 | 102 | > 256 | > 256 | > 256 | O=C(O)CC(=O)Nc1nc2c(s1)C[C@H](NC(=O)c1cc(Br)c(Br)[nH]1)CC2 | < 50 | < 50 | < 50 | < 50
14 | > 125 | 101 | 9.1 | > 125 | > 125 | > 125 | 87 | 104 |  |  |  | COC(=O)CCC(=O)Nc1nc2c(s1)C[C@@H](NC(=O)c1cc3ccccc3[nH]1)CC2 | < 50 | < 50 | < 50 | < 50
15 | > 125 |  | 520 | > 125 | > 125 | > 125 |  |  |  |  |  | Nc1nc2c(s1)C[C@@H](NC(=O)c1cc(Br)c[nH]1)CC2 | < 50 | < 50 | < 50 | < 50
16 | > 125 | 101 | 10 | > 125 | > 125 | > 125 | 76 | 99 |  |  |  | CCOC(=O)C(=O)Nc1nc2c(s1)C[C@@H](NC(=O)c1cc3ccccc3[nH]1)CC2 | < 50 | < 50 | < 50 | < 50
17 | > 125 | 99 | 8.1 | > 125 | > 125 | > 125 | 95 | 79 | > 256 | > 256 | > 256 | O=C(O)CCC(=O)Nc1nc2c(s1)C[C@@H](NC(=O)c1cc3ccccc3[nH]1)CC2 | < 50 | < 50 | < 50 | < 50
18 | > 125 | 97 | 35 | > 125 | > 125 | > 125 | 100 | 105 |  |  |  | Nc1ncc2c(n1)CCC(NC(=O)c1cc(Br)c[nH]1)C2 (configuration not stated) | < 50 | < 50 | < 50 | < 50
19 |  | 96 | 5.7 |  |  |  | 90 | 106 |  |  |  | Nc1ncc2c(n1)CCC(NC(=O)c1cc(Cl)c(Cl)[nH]1)C2 (configuration not stated) |  |  |  | 
20 | > 125 |  | 270 | > 125 | > 125 | > 125 |  |  | > 256 | > 256 | > 256 | Nc1nc2c(s1)C[C@@H](NC(=O)c1cc3cc(F)ccc3[nH]1)CC2 | < 50 | < 50 | < 50 | < 50
21 |  |  | 120 |  |  |  |  |  |  |  |  | Nc1nc2c(s1)CC(CNC(=O)c1cc(Br)c(Br)[nH]1)CC2 (configuration not stated) |  |  |  | 
22 | > 125 | 95 | 25 | > 125 | > 125 | > 125 | 100 | 104 |  |  |  | COC(=O)CC(=O)Nc1nc2c(s1)C[C@@H](NC(=O)c1cc(Br)c[nH]1)CC2 | < 50 | < 50 | < 50 | < 50
